Source: publication PMC7278776, “Multidrug Resistance Modulation Activity of Silybin Derivatives and Their Anti-Inflammatory Potential” (Antioxidants, 2020)
Marks after values point to notes of the source that are not given here.

How the values were obtained:
[1] = ORAC (oxygen radical absorption capacity) assay; settings: fluorescein/AAPH; read-out: ORAC, concentration necessary to halve the fluorescence response (IC50)
Description: Antioxidant capacity of samples was determined by ORAC (oxygen radical absorption capacity) and CAA (cellular antioxidant activity) assays. ORAC assay was realized by the previously described protocol. Briefly, 50 µL of the fluorescein solution (1.6 µg/mL in phosphate-buffered saline (PBS), pH 7.4) was added by a dispenser (MultiFlo Microplate Dispenser, BioTek Instrument, Winooski, VT, USA) into each well of a 96-well plate. Subsequently, 2 µL of tested compound in the concentration range 1.25–20 µM and 23 µL of PBS were added to the wells. The plate was incubated for 15 min at 37 °C and then 25 µL of AAPH (60 mg/mL) was added to each well. AAPH was replaced with PBS for the negative control. Immediately, the fluorescence was recorded by the microplate reader (SpectraMax i3 Multi-Mode Detection Platform, Molecular Devices, San Jose, CA, USA) for 2 h in 5 min steps (excitation/emission 485/535 nm).

IL-6 = IL-6 release by LPS-induced macrophages (ELISA); format: cell-based, mouse; settings: for IL-6 (pg/mL): untreated LPS control 1148 ± 35
Description: To determine the level of inflammatory cytokine IL-6, macrophages were cultivated with LPS (1 µg/mL) and the tested compounds (7–50 µM) for 6 h. After incubation, the plates were centrifuged (1000× g; 10 min, 4 °C) and then the medium was removed and frozen to −80 °C. Prior to the detection, the samples were diluted in ELISA diluent in a 1:10 ratio. Production of the cytokine was determined by uncoated ELISA performed according to the manufacturer’s instructions.

acetylcholinesterase = acetylcholinesterase (Homo sapiens, UniProt P22303); test: Acetylcholinesterase activity, Ellman colorimetric method; format: biochemical
acetylcholinesterase, sequence (P22303 32-614, species assumed): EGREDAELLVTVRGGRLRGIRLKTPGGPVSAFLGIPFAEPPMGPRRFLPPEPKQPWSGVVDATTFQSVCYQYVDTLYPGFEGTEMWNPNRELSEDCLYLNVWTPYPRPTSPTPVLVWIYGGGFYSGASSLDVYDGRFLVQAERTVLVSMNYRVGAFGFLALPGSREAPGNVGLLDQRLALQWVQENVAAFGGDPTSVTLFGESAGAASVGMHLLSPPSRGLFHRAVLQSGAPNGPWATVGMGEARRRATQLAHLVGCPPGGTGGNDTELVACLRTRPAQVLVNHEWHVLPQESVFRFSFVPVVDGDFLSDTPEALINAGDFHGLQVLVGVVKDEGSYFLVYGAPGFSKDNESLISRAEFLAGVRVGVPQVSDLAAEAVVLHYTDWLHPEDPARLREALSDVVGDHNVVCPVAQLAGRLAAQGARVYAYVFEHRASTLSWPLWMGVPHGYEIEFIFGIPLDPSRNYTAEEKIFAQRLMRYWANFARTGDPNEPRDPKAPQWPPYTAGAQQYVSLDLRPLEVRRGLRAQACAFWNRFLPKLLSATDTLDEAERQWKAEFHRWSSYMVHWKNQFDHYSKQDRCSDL
Description: The activity of acetylcholinesterase was measured by the Ellman colorimetric method. A stock solution of acetylcholinesterase was prepared in PBS (0.057 U/mL), 100× diluted and stored in a freezer (−20 °C). Further, the solution of DTNB (5,5′-dithio-bis-2-nitrobenzoic acid, 50 µM) and ATC ([…], 50 µM) was prepared. […] Afterwards, 10 µL of DNTB and ATC solution was added, and the reaction was launched. After the addition of reagents, the absorbance at 412 nm was recorded for 10 min every minute.

ABCA2 = ABCA2 mRNA expression (real-time PCR); format: cell-based, human; settings: A2780/DOX, 10 µM combined with doxorubicin at IC25, 48 h
Description: (§1) The A2780/DOX cell line was seeded into 5 cm Petri dishes with DMEM medium at 1 × 10^5 cell/mL. After 24 h, the dishes were washed with PBS and new DMEM medium supplemented with doxorubicin (at concentration equal to IC25) and samples (10 µM) were added. After 48 h of treatment, the cells were washed with PBS and harvested using the standard trypsin-EDTA procedure. The harvested cells were centrifuged (3200× g; 10 min, 4 °C). The supernatant was discarded, and the pellets were washed with 1.5 mL of cooled PBS (5400× g; 10 min, 4 °C). The washing step was repeated with 1 mL of PBS and the cells were centrifuged again (10,000× g; 3 min, 4 °C). Afterwards, the pellets were resuspended in 1 mL of Trizol (Invitrogen, Carlsbad, CA, USA) and transferred into pre-cooled RNase-free microfuge tubes. The samples were stored at −80 °C.
(§2) A Quant-iT RiboGreen RNA Assay Kit (Invitrogen) was used to determine the RNA concentration using the Infinite M200 plate reader (Tecan, Männedor, Switzerland). The cDNA was prepared from 0.5 µg of total RNA using a RevertAid First Strand Synthesis cDNA Kit (MBI Fermentas, Vilnius, Lithuania). The amplification of the ubiquitin C gene fragment was used to determine the quality of cDNA.
(§3) The experiment was performed using the ViiA7 Real-Time polymerase chain reaction (PCR) System (Life Technologies, Camarillo, CA, USA) with a 384-well block. Before quantitative real-time PCR, the master mix was prepared by mixing 2 µL of 8 × diluted cDNA, 1.75 µL of RNase free water, 1 µL of 5 × HotFIREPol Probe quantitative PCR Mix Plus (Solis Biodyne, Tartu, Estonia) and 0.25 µL of specific 20 × TaqMan Gene Expression Assay (Life Technologies), giving 5 µL of final reaction volume. Cycling parameters were: initial hold at 50 °C for 2 min and denaturation at 95 °C for 10 min, followed by 45 cycles consisting of denaturation at 95 °C for 15 s and annealing/extension at 60 °C for 1 min. After each extension phase, the fluorescence values were acquired. Duplicate samples were used for measurement and samples with a standard deviation of duplicates > 1.0 cycle threshold (Ct) were re-analyzed. The real time PCR procedure was maintained according to MIQE (Minimum information for publication of quantitative real-time PCR experiments) guidelines. The software REST 2009 (Qiagen, Hilden, Germany) served to compare relative transcript levels of genes in the cell line.

ABCA5 = ABCA5 mRNA expression (real-time PCR); format: cell-based, human; settings: A2780/DOX
Description: as §1, §2, §3

ABCB2 = ABCB2 mRNA expression (real-time PCR); format: cell-based, human; settings: A2780/DOX, 10 µM combined with doxorubicin at IC25, 48 h
Description: as §1, §2, §3

ABCB10 = ABCB10 mRNA expression (real-time PCR); format: cell-based, human; settings: A2780/DOX
Description: as §1, with “After 24 h, the dishes were washed with PBS and new DMEM medium supplemented with doxorubicin (at concentration equal to IC25) and samples (10 µM) were added.” left out
as §2, §3

ABCC5 = ABCC5 mRNA expression (real-time PCR); format: cell-based, human; settings: A2780/DOX, 10 µM combined with doxorubicin at IC25, 48 h
Description: as §1, §2, §3

ABCC10 = ABCC10 mRNA expression (real-time PCR); format: cell-based, human; settings: A2780/DOX
Description: as §1, with “After 24 h, the dishes were washed with PBS and new DMEM medium supplemented with doxorubicin (at concentration equal to IC25) and samples (10 µM) were added.” left out
as §2, §3

ABCD3 = ABCD3 mRNA expression (real-time PCR); format: cell-based, human; settings: A2780/DOX
Description: as §1, §2, §3

ABCF3 = ABCF3 mRNA expression (real-time PCR); format: cell-based, human; settings: A2780/DOX
Description: as §1, with “After 24 h, the dishes were washed with PBS and new DMEM medium supplemented with doxorubicin (at concentration equal to IC25) and samples (10 µM) were added.” left out
as §2, §3

ABCG2 (BCRP) = test: ABCG2 mRNA expression (real-time PCR); format: cell-based, human
Description: as §1, with “After 24 h, the dishes were washed with PBS and new DMEM medium supplemented with doxorubicin (at concentration equal to IC25) and samples (10 µM) were added.” left out
as §2, §3

[2] = 10 µM combined with doxorubicin at IC25, 48 h
[3] = 10 µM, 48 h, without doxorubicin
[4] = A2780/DOX, 10 µM combined with doxorubicin at IC25, 48 h
[5] = A2780/DOX, 10 µM, 48 h, without doxorubicin

Structure (SMILES): COc1cc(C2Oc3cc(-c4oc5cc(O)cc(O)c5c(=O)c4O)ccc3OC2CO)ccc1O (stereo not drawn) [Dehydrosilybin AB, 2,3-dehydrosilybin]
- IC50 [1]: 10.1 µM
- IL-6 (pg/mL) (IL-6; compound 7 µM): 997 ± 41 ^d pg/mL
- IL-6 (pg/mL) (IL-6; compound 15 µM): 441 ± 19 ^d pg/mL
- IL-6 (pg/mL) (IL-6; compound 50 µM): 0 ± 0 ^a pg/mL
- IL-6 (pg/mL) (IL-6; compound 50 µM, listed as dehydrosilybin AB): under the detection limit of the ELISA assay
- IC50 (acetylcholinesterase): 2.7 ± 0.3 µM
- inhibition of acetylcholinesterase activity relative to single isomers (acetylcholinesterase): 2.5 ×
- ABCA2 Expression Difference (ABCA2): 1.046
- ABCA5 Expression Difference (ABCA5; [2]): 1.254
- ABCB2 Expression Difference (ABCB2): 5.145
- ABCB10 Expression Difference (ABCB10; [2]): 1.119
- ABCB10 Expression Difference (ABCB10; [3]): 1.589
- ABCC5 Expression Difference (ABCC5): 1.288
- ABCC10 Expression Difference (ABCC10; [2]): 1.323
- ABCC10 Expression Difference (ABCC10; [3]): 1.471
- ABCD3 Expression Difference (ABCD3; [2]): 1.288
- ABCD3 Expression Difference (ABCD3; [3]): 1.545
- ABCF3 Expression Difference (ABCF3; [2]): 1.326
- ABCF3 Expression Difference (ABCF3; [3]): 1.706
- ABCG2 Expression Difference (ABCG2 (BCRP); [4]): 1.698
- ABCG2 Expression Difference (ABCG2 (BCRP); [5]): 1.921

Structure (SMILES): COc1cc([C@@H]2Oc3cc([C@H]4Oc5cc(O)cc(O)c5C(=O)[C@@H]4O)ccc3O[C@H]2CO)ccc1O [Silybin B, silybin B]
- IC50 [1]: 6.8 ± 0.3 µM
- IC50 (IL-6; Mus musculus, RAW264.7, RAW 264.7, LPS + compound 6 h, read-out: IL-6, concentration necessary to halve the release (IC50)): 5.2 ± 0.2 µM
- IL-6 (pg/mL) (IL-6; compound 7 µM): 297 ± 23 ^a pg/mL
- IL-6 (pg/mL) (IL-6; compound 15 µM): 166 ± 6 ^b pg/mL
- IL-6 (pg/mL) (IL-6; compound 50 µM): 37 ± 2 ^a pg/mL
- IC50 (acetylcholinesterase): 83.7 ± 6.4 µM
- ABCA2 Expression Difference (ABCA2): 0.903
- ABCA2 Treated vs. Untreated (ABCA2): DOWN
- ABCA5 Expression Difference (ABCA5; [2]): 1.821
- ABCA5 Expression Difference (ABCA5; [3]): 0.356
- ABCA5 Treated vs. Untreated (ABCA5; [3]): DOWN
- ABCB2 Expression Difference (ABCB2): 15.698
- ABCB10 Expression Difference (ABCB10; [2]): 0.835
- ABCB10 Treated vs. Untreated (ABCB10; [2]): DOWN
- ABCB10 Expression Difference (ABCB10; [3]): 0.329
- ABCB10 Treated vs. Untreated (ABCB10; [3]): DOWN
- ABCC5 Expression Difference (ABCC5): 1.473
- ABCC10 Expression Difference (ABCC10; [2]): 1.349
- ABCC10 Expression Difference (ABCC10; [3]): 0.340
- ABCC10 Treated vs. Untreated (ABCC10; [3]): DOWN
- ABCD3 Expression Difference (ABCD3; [3]): 0.337
- ABCD3 Treated vs. Untreated (ABCD3; [3]): DOWN
- ABCF3 Expression Difference (ABCF3; [2]): 1.335
- ABCF3 Expression Difference (ABCF3; [3]): 0.328
- ABCF3 Treated vs. Untreated (ABCF3; [3]): DOWN
- downregulation of ABCG2 (BCRP) expression (ABCG2 (BCRP); [3]): 67%
- ABCG2 Expression Difference (ABCG2 (BCRP); [4]): 1.902
- ABCG2 Expression Difference (ABCG2 (BCRP); [5]): 0.335
- ABCG2 Treated vs. Untreated (ABCG2 (BCRP); [5]): DOWN

Structure (SMILES): COc1cc([C@H]2Oc3cc(-c4oc5cc(O)cc(O)c5c(=O)c4O)ccc3O[C@@H]2CO)ccc1O [Dehydrosilybin A, 2,3-dehydrosilybin A]
- IC50 [1]: 11.4 ± 1.2 µM
- IL-6 (pg/mL) (IL-6; compound 7 µM): 292 ± 15 ^a pg/mL
- IL-6 (pg/mL) (IL-6; compound 15 µM): 79 ± 8 ^a pg/mL
- IL-6 (pg/mL) (IL-6; compound 50 µM): 0 ± 0 ^a pg/mL
- IL-6 (pg/mL) (IL-6; compound 50 µM, listed as dehydrosilybin A): under the detection limit of the ELISA assay
- IL-6 modulation effect higher in comparison with its diastereomeric mixture (IL-6; vs dehydrosilybin AB): approximately 70%
- IC50 (acetylcholinesterase): 6.9 ± 0.6 µM
- ABCA2 Expression Difference (ABCA2): 1.105
- ABCA5 Expression Difference (ABCA5; [2]): 1.223
- ABCB2 Expression Difference (ABCB2): 5.557
- ABCB10 Expression Difference (ABCB10; [2]): 1.020
- ABCB10 Expression Difference (ABCB10; [3]): 1.236
- ABCC5 Expression Difference (ABCC5): 1.116
- ABCC10 Expression Difference (ABCC10; [2]): 1.214
- ABCC10 Expression Difference (ABCC10; [3]): 1.200
- ABCD3 Expression Difference (ABCD3; [2]): 1.043
- ABCF3 Expression Difference (ABCF3; [2]): 1.096
- ABCF3 Expression Difference (ABCF3; [3]): 1.602
- ABCG2 Expression Difference (ABCG2 (BCRP); [4]): 1.259
